Inhibition data for 3 molecules are collected here from ChEMBL document CHEMBL5653615 (J Biol Chem, 2013).

Activity calls are given as the source filed them. The calls are words filed in the database; no cut-off is given here.

Usually inhibition stands for the drop in the measured response relative to a control, in per cent.

Assay [1] deals with Platelet-derived growth factor receptor beta (Homo sapiens) (UniProt P09619). Briefly: Inhibition of human PDGFRb at 500 nM by HotSpot assay relative to control.
Platelet-derived growth factor receptor beta (Homo sapiens), sequence (P09619 whole entry): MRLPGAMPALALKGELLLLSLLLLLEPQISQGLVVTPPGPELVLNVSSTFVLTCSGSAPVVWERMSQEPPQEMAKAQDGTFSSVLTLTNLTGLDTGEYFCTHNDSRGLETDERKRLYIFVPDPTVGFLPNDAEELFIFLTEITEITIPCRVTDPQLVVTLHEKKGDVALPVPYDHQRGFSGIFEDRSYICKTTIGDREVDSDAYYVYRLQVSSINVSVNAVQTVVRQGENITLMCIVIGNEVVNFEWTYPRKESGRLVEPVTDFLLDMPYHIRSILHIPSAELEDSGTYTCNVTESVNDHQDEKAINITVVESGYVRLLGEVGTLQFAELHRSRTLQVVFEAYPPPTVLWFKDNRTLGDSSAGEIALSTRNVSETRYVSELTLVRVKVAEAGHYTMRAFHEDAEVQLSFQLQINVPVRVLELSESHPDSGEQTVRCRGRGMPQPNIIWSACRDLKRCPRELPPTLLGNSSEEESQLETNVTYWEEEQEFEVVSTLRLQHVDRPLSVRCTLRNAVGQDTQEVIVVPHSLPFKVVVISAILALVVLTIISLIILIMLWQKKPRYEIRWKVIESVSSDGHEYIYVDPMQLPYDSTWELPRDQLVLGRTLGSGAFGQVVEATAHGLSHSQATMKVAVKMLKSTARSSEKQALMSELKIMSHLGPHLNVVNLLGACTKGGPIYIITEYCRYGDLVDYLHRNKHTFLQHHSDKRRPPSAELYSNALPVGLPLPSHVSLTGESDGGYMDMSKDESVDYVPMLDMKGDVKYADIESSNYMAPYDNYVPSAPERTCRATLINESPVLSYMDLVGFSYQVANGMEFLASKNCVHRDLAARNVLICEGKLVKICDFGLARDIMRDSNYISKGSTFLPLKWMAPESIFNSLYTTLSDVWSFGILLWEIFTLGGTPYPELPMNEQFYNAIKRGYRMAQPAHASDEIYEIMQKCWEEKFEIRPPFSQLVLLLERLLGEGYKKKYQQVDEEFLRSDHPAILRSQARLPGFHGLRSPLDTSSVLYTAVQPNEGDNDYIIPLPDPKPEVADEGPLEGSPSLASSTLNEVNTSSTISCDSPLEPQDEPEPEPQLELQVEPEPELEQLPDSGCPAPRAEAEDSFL
Assay [2] concerns the target Insulin receptor (Homo sapiens) (UniProt P06213). In words: Inhibition of wild-type human Insulin receptor transfected in CHO-K1 cell lysate assessed as decrease in tyrosine phosphorylation at 10 uM for 30 mins on ice followed by insulin stimulation for 10 mins by Western blot analysis. The class given is subcellular. Conditions: time 40.0 min. (A western blot detects proteins with antibodies after separation by electrophoresis.)

For assay [3], the target named is Tyrosine-protein kinase ABL1 (Homo sapiens) (UniProt P00519). Briefly: Inhibition of human ABL1 at 18.6 nM by HotSpot assay relative to control.
In assay [4] the target is Protein-tyrosine kinase 6 (Homo sapiens) (UniProt Q13882). Briefly: Inhibition of human BRK at 18.6 nM by HotSpot assay relative to control.
The target in assay [5] is Calcium/calmodulin-dependent protein kinase type 1B (Homo sapiens) (UniProt Q6P2M8). Briefly: Inhibition of human CAMK1b at 18.6 nM by HotSpot assay relative to control.
For assay [6], the target named is Calcium/calmodulin-dependent protein kinase type II subunit alpha (Homo sapiens) (UniProt Q9UQM7). Briefly: Inhibition of human CAMK2a at 18.6 nM by HotSpot assay relative to control.
Calcium/calmodulin-dependent protein kinase type II subunit alpha (Homo sapiens), sequence (Q9UQM7 whole entry): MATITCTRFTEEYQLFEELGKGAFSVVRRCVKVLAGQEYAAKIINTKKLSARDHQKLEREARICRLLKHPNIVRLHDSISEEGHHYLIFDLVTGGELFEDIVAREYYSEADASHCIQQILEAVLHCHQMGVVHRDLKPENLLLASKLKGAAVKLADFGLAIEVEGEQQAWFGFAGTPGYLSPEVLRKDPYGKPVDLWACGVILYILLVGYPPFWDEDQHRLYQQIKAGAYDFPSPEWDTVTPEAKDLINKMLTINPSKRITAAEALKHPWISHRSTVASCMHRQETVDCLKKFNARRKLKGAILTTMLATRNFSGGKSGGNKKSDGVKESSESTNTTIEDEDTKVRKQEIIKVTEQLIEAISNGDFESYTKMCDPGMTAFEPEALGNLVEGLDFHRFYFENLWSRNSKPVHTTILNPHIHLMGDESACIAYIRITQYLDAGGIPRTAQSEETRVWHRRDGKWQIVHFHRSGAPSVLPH
The target of assay [7] is CDK4/Cyclin D3 (Homo sapiens) (UniProt P11802+P30281). In words: Inhibition of human CDK4/cyclin D3 at 18.6 nM by HotSpot assay relative to control. The class given is protein-complex assay.
Assay [8] deals with CDK6/cyclin D1 (Homo sapiens) (UniProt P24385+Q00534). Briefly: Inhibition of human CDK6/cyclin D1 at 18.6 nM by HotSpot assay relative to control. The class given is protein-complex assay.
For assay [9], the target named is Casein kinase I isoform gamma-2 (Homo sapiens) (UniProt P78368). In words: Inhibition of human CK1g2 at 18.6 nM by HotSpot assay relative to control.
For assay [10], the target named is Tyrosine-protein kinase HCK (Homo sapiens) (UniProt P08631). Briefly: Inhibition of human HCK at 18.6 nM by HotSpot assay relative to control.
In assay [11] the target is Interleukin-1 receptor-associated kinase 1 (Homo sapiens) (UniProt P51617). Briefly: Inhibition of human IRAK1 at 18.6 nM by HotSpot assay relative to control.
For assay [12], the target named is LIM domain kinase 1 (Homo sapiens) (UniProt P53667). In words: Inhibition of human LIMK1 at 18.6 nM by HotSpot assay relative to control.
LIM domain kinase 1 (Homo sapiens), sequence (P53667 whole entry, looked up, the tested form may be a part): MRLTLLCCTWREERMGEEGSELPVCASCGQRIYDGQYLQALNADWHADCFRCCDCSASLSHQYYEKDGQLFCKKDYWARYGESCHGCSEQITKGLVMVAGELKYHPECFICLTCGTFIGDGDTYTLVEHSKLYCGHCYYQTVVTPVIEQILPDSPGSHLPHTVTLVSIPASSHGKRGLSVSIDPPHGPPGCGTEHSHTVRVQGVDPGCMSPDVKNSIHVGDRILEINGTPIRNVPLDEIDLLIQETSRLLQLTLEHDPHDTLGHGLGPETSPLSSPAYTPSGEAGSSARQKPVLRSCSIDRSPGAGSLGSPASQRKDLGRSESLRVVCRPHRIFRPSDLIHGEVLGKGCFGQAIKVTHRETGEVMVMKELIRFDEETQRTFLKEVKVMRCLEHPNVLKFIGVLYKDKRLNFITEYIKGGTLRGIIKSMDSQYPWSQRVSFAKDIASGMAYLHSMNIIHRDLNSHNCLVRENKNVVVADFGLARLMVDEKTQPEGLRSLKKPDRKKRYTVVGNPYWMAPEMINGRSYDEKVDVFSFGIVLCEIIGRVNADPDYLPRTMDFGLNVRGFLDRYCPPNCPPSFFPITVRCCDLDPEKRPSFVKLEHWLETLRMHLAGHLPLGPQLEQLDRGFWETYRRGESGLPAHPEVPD
The target in assay [13] is Serine/threonine-protein kinase PAK 6 (Homo sapiens) (UniProt Q9NQU5). In words: Inhibition of human PAK6 at 18.6 nM by HotSpot assay relative to control.
Serine/threonine-protein kinase PAK 6 (Homo sapiens), sequence (Q9NQU5 whole entry, looked up): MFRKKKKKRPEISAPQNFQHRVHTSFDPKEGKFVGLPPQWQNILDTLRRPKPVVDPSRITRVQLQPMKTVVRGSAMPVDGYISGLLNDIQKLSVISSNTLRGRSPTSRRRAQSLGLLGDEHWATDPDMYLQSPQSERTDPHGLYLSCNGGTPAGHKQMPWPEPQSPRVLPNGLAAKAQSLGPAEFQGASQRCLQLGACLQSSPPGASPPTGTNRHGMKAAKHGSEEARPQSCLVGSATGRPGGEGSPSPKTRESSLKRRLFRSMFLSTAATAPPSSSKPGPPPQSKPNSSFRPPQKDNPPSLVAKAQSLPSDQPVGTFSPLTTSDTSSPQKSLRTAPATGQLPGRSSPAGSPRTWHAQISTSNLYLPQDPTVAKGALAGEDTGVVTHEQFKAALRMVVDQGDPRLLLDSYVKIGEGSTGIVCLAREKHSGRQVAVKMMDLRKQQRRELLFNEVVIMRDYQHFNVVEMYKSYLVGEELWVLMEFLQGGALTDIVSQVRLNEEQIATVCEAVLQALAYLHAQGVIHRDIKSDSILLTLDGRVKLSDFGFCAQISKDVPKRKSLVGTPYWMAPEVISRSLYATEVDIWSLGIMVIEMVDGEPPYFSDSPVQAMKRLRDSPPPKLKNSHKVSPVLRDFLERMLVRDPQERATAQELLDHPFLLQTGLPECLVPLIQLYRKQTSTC
Assay [14] addresses Calcium/calmodulin-dependent protein kinase type II subunit beta (Homo sapiens) (UniProt Q13554). In words: Inhibition of human CAMK2b at 1.82 nM by HotSpot assay relative to control.
Assay [15] concerns the target Calcium/calmodulin-dependent protein kinase type II subunit gamma (Homo sapiens) (UniProt Q13555). Briefly: Inhibition of human CAMK2g at 1.82 nM by HotSpot assay relative to control.
Assay [16] addresses MAP kinase-activated protein kinase 3 (Homo sapiens) (UniProt Q16644). Briefly: Inhibition of human MAPKAPK3 at 1.82 nM by HotSpot assay relative to control.
Assay [17] deals with MAP kinase-interacting serine/threonine-protein kinase 2 (Homo sapiens) (UniProt Q9HBH9). In words: Inhibition of human MNK2 at 1.82 nM by HotSpot assay relative to control.
MAP kinase-interacting serine/threonine-protein kinase 2 (Homo sapiens), sequence (Q9HBH9 whole entry, looked up): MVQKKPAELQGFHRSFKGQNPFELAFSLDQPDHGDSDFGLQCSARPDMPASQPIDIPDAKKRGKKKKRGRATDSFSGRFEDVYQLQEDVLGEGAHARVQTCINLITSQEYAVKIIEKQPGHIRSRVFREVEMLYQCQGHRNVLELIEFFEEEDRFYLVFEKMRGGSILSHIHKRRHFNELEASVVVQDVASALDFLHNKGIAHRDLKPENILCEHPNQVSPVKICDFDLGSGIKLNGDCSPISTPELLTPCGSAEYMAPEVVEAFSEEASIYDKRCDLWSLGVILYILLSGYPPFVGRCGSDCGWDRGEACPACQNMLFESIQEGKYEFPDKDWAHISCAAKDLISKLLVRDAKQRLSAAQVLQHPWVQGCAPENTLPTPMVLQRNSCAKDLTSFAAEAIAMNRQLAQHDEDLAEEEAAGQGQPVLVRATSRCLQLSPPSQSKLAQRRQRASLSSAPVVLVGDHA
Assay [18] deals with T1, Serine/threonine-protein kinase NLK (Homo sapiens) (UniProt Q9UBE8).
T1 sequence (whole entry): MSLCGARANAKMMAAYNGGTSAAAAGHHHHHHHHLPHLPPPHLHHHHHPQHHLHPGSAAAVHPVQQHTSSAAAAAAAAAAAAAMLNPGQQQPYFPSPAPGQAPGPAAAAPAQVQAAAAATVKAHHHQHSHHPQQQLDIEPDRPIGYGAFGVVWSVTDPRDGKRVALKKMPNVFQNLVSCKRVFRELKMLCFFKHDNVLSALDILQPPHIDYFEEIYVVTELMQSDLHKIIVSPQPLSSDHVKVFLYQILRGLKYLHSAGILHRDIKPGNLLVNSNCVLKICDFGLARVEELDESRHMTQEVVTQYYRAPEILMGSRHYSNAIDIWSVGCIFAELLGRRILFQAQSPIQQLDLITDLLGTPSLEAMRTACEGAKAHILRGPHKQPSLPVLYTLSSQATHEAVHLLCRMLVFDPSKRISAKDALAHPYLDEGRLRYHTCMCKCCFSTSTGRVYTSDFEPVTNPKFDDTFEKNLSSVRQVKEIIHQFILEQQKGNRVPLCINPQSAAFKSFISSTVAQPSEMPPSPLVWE
In words: Inhibition of human NLK at 1.82 nM by HotSpot assay relative to control.

Assay [19] has as its target T2, 3-phosphoinositide-dependent protein kinase 1 (Homo sapiens) (UniProt O15530).
T2 sequence (whole entry): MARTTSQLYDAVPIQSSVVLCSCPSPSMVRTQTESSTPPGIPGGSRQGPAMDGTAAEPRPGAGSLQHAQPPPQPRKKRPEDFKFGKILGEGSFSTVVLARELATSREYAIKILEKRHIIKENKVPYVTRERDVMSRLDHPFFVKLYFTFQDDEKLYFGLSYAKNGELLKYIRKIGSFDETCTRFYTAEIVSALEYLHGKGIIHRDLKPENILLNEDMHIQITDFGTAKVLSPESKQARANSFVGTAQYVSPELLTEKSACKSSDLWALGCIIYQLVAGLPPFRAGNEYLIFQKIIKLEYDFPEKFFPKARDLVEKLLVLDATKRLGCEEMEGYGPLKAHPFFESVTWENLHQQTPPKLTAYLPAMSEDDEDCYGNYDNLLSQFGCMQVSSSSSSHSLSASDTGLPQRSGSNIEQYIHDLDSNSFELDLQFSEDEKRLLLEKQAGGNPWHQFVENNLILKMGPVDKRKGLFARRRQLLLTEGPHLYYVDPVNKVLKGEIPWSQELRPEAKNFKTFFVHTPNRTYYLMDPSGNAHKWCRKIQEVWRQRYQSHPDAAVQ
Briefly: Inhibition of human PDPK1 at 1.82 nM by HotSpot assay relative to control.

The target in assay [20] is Tyrosine-protein kinase Srms (Homo sapiens) (UniProt Q9H3Y6). Briefly: Inhibition of human SRMS at 1.82 nM by HotSpot assay relative to control.
In assay [21] the target is Serine/threonine-protein kinase 33 (Homo sapiens) (UniProt Q9BYT3). In words: Inhibition of human STK33 at 1.82 nM by HotSpot assay relative to control.
Serine/threonine-protein kinase 33 (Homo sapiens), sequence (Q9BYT3 whole entry, looked up): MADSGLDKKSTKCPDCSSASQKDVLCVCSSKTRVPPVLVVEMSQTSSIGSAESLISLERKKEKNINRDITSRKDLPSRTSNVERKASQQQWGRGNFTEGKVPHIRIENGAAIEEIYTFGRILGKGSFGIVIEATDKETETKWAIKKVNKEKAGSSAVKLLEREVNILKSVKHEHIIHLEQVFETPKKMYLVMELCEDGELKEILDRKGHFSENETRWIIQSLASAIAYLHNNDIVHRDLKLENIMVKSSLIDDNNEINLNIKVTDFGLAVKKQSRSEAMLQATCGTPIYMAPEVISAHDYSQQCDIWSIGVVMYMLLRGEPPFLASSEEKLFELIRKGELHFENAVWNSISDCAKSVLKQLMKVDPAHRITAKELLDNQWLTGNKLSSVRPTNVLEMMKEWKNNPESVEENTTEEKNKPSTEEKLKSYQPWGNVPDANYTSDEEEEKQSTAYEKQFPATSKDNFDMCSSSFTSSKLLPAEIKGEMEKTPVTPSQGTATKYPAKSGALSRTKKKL
For assay [22], the target named is Leukocyte tyrosine kinase receptor (Homo sapiens) (UniProt P29376). Briefly: Inhibition of human LTK at 1.82 nM by HotSpot assay relative to control.
Leukocyte tyrosine kinase receptor (Homo sapiens), sequence (P29376 whole entry): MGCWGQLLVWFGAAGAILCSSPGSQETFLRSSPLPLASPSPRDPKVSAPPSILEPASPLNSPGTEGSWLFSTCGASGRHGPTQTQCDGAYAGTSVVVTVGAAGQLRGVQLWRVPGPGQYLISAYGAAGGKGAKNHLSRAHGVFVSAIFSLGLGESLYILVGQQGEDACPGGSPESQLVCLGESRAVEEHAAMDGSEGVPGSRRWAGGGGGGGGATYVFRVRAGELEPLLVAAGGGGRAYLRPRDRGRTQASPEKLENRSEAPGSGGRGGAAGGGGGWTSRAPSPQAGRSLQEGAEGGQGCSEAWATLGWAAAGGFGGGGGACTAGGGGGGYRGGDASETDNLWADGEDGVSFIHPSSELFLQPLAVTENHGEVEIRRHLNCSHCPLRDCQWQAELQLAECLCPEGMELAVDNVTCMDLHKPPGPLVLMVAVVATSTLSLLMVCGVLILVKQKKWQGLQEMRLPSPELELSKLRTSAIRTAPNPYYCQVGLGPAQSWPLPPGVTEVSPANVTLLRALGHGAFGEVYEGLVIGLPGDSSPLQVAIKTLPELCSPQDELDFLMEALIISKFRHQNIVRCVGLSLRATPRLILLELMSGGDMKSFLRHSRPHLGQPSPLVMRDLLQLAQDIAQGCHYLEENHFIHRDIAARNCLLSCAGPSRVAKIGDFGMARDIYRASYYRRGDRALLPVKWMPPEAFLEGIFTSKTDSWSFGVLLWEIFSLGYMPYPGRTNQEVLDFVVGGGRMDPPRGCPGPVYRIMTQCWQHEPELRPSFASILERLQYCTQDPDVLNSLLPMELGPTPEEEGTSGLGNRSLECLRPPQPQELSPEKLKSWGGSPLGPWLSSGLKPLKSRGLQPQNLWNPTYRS
Assay [23] deals with Dual specificity protein kinase CLK3 (Homo sapiens) (UniProt P49761). Particulars: dose 1.82 nM.
Description: Inhibition of human CLK3 at 1.82 nM by HotSpot assay relative to control

In the case of `Oc1n[nH]c2nnc(-c3c(-c4ccccc4)nn4ccccc34)cc12`, the inhibition in [1] was -0.46%. Besides, in [2], the inhibition entry is “Active”.
In the case of `C[C@]1(O)C[C@@H](c2nc(-c3ccc4ccc(-c5ccccc5)nc4c3)c3c(N)nccn32)C1`, the inhibition in assay [3] is 9.07%; in [4], 3.64%; in [5], -4.62%; in assay [6], -4.3%; in [7], 2.46%; in [8], 0.62%. Further, the inhibition in [9] was -6.22%; in assay [10] it was 10.3%; in [11] it was -8.8%; in [12], -8.11%; in assay [13] it was -8.39%.
As for `C[C@@]1(C(=O)Nc2ccc(F)nc2)CCCN1c1nc(Nc2cc(C3CC3)n[nH]2)c2cccn2n1`, the inhibition in assay [14] is 4.93%; in assay [15], 4.1%; in [16], -1.61%; in assay [17], -4.8%; in assay [18] it was 2.48%; in assay [19], -0.32%. In addition, the inhibition was -3.77% in assay [20], 1.95% in assay [21], -7.41% in assay [22] and -1.35% in assay [23].
